Test results from patent US20050096395A1, “Methods of treating attention deficit/hyperactivity disorder (adhd)” (priority 2002, published 2005).

How the values were obtained:
[1] = test system: spontaneously hypertensive rats (SHR); assay: delayed gratification response paradigm in animal model of AD/HD; type: in vivo, rat; conditions: 5, 10, 25 or 50 mg/kg over twenty-one days
Protocol: In this study, spontaneously hypertensive rats (SHR) are used as an animal model for AD/HD. The SHR animal model is described in Russell et al., 2000, Behavioral Brain Research, 117: 69-74; Russell, 2001, Metab. Brain Dis., 16: 143-149; and Sagvolden et al., 1992, Behav. Neural Biol., 58: 103-112. The study consists of two groups of rats: normal and SHR. Each group is further divided into two subgroups: placebo and milnacipran. […] The milnacipran is administered to the rats over a period of twenty-one days. The rats are from the normal and SHR groups are trained in the delayed gratification response paradigm as described in […] et al., 1996, Pharmacology and Biochemistry and Behavior, 54: 149-157. In this paradigm, rats learn to choose between five food pellets delivered after 30 seconds and one food pellet delivered after 5 seconds. Normal rats learn to choose the five food pellets delivered after 30 seconds at a higher frequency.

[2] = molecular target: NMDA receptor; conditions: cited from earlier work
[3] = test system: norepinephrine reuptake; conditions: cited from earlier work
[4] = test system: rats described in McGrath et al., 2000; assay: animal model of tic disorder (McGrath et al., 2000); type: in vivo, rat; conditions: 5, 10, 25 or 50 mg/kg over twenty-one days, before vs after administration
Protocol: The rats are divided into two groups: placebo and milnacipran. […] The milnacipran is administered to the rats over a period of twenty-one days.

[5] = test system: patients with AD/HD and comorbid tic disorder; assay: randomized, double-blind, placebo-controlled trial in patients with AD/HD and comorbid tic disorder; type: in vivo, human; conditions: patients 7-15 years; 1.5-2 mg/kg/day; after 8 weeks of treatment
Text: This study is a randomized, double-blind, placebo-controlled trial of parallel groups. […] Before entry into the study, each patient undergoes a detailed clinical evaluation by a psychiatrist and/or a psychologist. The diagnosis of AD/HD and comorbid tic disorder is made on the basis of this interview. Entry criteria includes age between 7 and 15 years, a DSM-IV diagnosis of AD/HD (any type), a DSM-IV tic disorder (any type), and a score of ≧1.5 standard deviation units for age and gender on the 10-item Conners hyperactivity index (Goyette et al., 1978, J. Abnorm. Child Psychol., 6: 221-236) rated by a teacher or parent. Exclusion criteria includes evidence of major depression, generalized anxiety disorder, separation anxiety disorder, or psychotic symptoms. Children with moderate or more severe tic symptoms (Yale Global Tic Severity Scale [[…] et al., 1989, J Am Acad Child Adolesc Psychiatry, 28: 566-573] total tic score of>22) or significant obsessive-compulsive symptoms (Children's Yale Brown Obsessive Compulsive Scale [[…] et al., 1997, J Am Acad Child Adolesc Psychiatry, 36: 844-852] total score>15) are also excluded. Before entry into the study the patients are tapered off their current medication. The participants in the study are randomly divided into two groups-milnacipran group and placebo control group. Each group consists of 5 patients. […] The patients in the placebo group are administered a placebo for 8 weeks. The patient's course is followed at visits with a primary clinician, who is blind to the patient's study group, every 2 weeks. The AD/HD rating scale, Clinical Global Impression global improvement score, and Yale Global Tic Severity Scale are used to follow the outcome measures. […] Each symptom was scored by the child's teacher from 0 to 3 (0=never [or rarely], 1=sometimes, 2=often, and 3=very often). […] A score of much improved or very much improved, reflecting meaningful improvement in AD/HD symptoms both at school and at home, is counted as a positive response. […]

Structure (SMILES): CCN(CC)C(=O)[C@]1(c2ccccc2)C[C@@H]1CN (racemic) [milnacipran, cis-(±)-2-(aminomethyl)-N,N-diethyl-1-phenyl-yclopropanecarboxamide]
- time required by SHR rats to choose five food pellets delivered after 30 seconds at a higher frequency [1]: reduced, approaching the amount of time required by the normal rats
- IC50 [2]: ~6.3 µM
- abnormal behavior such as climbing/leaping, gnawing, and other tic-like behaviors [4]: reduces the abnormal behavior
- AD/HD Rating Scale [5]: improvement
- Clinical Global Improvement Scale [5]: improvement
- Yale Global Tic Severity Scale [5]: improvement
